Article PMC3044726, “Identification of Human IKK-2 Inhibitors of Natural Origin (Part I): Modeling of the IKK-2 Kinase Domain, Virtual Screening and Activity Assays” (PLoS ONE, 2011)
Where two headings read alike, the source gives them in different places.

Biological target: T1, hIKK-2 (Homo sapiens, UniProt O14920)
T1 construct: gene IKBKB
T1 sequence (O14920 1-756): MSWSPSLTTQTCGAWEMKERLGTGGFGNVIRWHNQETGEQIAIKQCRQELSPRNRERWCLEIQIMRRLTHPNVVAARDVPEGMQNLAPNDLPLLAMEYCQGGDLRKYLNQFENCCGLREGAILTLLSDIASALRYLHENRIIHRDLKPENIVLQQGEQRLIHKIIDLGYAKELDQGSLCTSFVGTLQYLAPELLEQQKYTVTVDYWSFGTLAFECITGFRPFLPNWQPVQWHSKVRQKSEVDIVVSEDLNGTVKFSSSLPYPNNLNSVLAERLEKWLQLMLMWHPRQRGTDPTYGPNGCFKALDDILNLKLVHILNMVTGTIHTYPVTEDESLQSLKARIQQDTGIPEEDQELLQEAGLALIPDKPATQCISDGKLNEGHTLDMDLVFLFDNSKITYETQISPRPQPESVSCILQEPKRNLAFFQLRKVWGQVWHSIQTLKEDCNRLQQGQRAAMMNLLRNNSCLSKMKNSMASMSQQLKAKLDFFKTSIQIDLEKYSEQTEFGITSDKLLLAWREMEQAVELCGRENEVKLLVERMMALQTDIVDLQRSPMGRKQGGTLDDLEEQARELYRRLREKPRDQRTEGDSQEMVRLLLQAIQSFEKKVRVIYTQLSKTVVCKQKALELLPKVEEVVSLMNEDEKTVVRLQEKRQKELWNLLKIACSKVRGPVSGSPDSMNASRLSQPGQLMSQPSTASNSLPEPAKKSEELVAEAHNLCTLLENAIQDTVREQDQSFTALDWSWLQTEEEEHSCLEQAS
Test: K-LISA IKKβ ELISA kinase assay with GST-IκBα substrate
Assay type: biochemical

Row | Structure (SMILES) | IC50 | IC50 (read-out: IC50)
1 | COCc1c(CN)cnc(C)c1N [ZINC03683886] | 2070 µM | –
2 | CCOc1ccc2nc3cc(N)ccc3c(N)c2c1 [ZINC03871389, ethacridine] | – | 184 µM
3 | OC[C@@H]1CCCN2CCCC[C@H]12 [ZINC01669260, lupinine] | – | 3320 µM
